Assay results as given in patent publication US20230233569A1 (Revolution Medicines, Inc., priority 2020, published 2023).
Like-named read-outs stand apart in the source and are kept apart here.

Legend:
[1] = system: Capan-1 (K-Ras G12V); experiment: CellTiter-Glo cell viability assay, 5-day treatment; format: cell-based; details: Homo sapiens, CAPAN-1, 120 h
Procedure, shortened: (§1)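 Five-day compound treatment of plated cells; luminescent read after ~30 min at RT. Percent-of-DMSO data fit to a four-parameter logistic model.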

[2] = system: NCI-H358 (K-Ras G12C); experiment: as above; format: cell-based; details: Homo sapiens, NCI-H358, 120 h, 5-day treatment; read-out: H358 Cell Viability assay data (K-Ras G12C, IC50)
Procedure, shortened: as §1

[3] = biological target: KRAS G12C (Homo sapiens, UniProt P01116+P62937, G12C); experiment: Disruption of BRAF RBD interaction with Ras (FRET / MOA assay, with Cyclophilin A); format: biochemical; details: read-out: KRAS G12C FRET data, IC50
KRAS G12C, sequence (P01116 1-169 isoform P01116-2 G12C): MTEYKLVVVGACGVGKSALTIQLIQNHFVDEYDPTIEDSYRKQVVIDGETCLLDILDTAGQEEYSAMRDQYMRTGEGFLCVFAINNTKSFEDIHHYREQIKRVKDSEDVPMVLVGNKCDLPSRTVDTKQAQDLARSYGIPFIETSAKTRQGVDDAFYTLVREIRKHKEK
KRAS G12C, sequence (P62937 whole entry): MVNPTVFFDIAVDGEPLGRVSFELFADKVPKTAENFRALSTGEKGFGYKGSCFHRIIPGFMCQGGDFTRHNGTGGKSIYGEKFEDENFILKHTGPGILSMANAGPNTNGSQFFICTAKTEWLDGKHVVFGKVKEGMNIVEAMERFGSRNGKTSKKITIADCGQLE
Procedure, shortened: (§2)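 First, compounds at a ten-point threefold dilution series (highest final concentration 30 μM) were incubated with nucleotide-loaded K-Ras, Cyclophilin A and BRAF RBD for 3 h at 25 °C. Next, detection antibodies were added for 1.5 h. Finally, IC50 was calculated from TR-FRET ratio decreases against DMSO controls.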

[4] = biological target: KRAS G12D (Homo sapiens, UniProt P01116+P62937, G12D); experiment: as above; format: biochemical; details: read-out: KRAS G12D FRET data, IC50
KRAS G12D, sequence (P01116 1-169 isoform P01116-2 G12D limits assumed): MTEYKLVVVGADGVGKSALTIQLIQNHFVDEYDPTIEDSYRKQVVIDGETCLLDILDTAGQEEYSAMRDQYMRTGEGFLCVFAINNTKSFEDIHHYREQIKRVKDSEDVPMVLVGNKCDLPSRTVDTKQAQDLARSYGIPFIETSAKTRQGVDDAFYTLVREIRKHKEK
KRAS G12D, sequence (P62937 whole entry): as the sequence (P62937 whole entry) above
Procedure, shortened: as §2

[5] = biological target: KRAS G12S (Homo sapiens, UniProt P01116+P62937, G12S); experiment: as above; format: biochemical; details: read-out: KRAS G12S FRET data, IC50
KRAS G12S, sequence (P01116 1-169 isoform P01116-2 G12S limits assumed): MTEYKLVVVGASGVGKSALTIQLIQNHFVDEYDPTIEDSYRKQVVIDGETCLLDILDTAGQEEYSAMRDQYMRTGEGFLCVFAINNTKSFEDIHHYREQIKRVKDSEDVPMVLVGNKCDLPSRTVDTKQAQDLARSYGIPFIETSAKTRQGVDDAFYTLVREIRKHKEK
KRAS G12S, sequence (P62937 whole entry): as the sequence (P62937 whole entry) above
Procedure, shortened: as §2

[6] = biological target: KRAS G12V (Homo sapiens, UniProt P01116+P62937, G12V); experiment: as above; format: biochemical; details: KRAS G12V; read-out: KRAS G12V FRET data IC50
KRAS G12V, sequence (P01116 1-169 isoform P01116-2 G12V limits assumed): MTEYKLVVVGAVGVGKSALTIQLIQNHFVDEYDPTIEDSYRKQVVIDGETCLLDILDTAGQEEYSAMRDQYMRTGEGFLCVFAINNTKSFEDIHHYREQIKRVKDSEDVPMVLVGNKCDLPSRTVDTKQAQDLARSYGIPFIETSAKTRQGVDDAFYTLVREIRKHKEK
KRAS G12V, sequence (P62937 whole entry): as the sequence (P62937 whole entry) above
Procedure, shortened: as §2

[7] = biological target: KRAS G13C (Homo sapiens, UniProt P01116+P62937, G13C); experiment: as above; format: biochemical; details: read-out: KRAS G13C FRET data, IC50
KRAS G13C, sequence (P01116 1-169 isoform P01116-2 G13C): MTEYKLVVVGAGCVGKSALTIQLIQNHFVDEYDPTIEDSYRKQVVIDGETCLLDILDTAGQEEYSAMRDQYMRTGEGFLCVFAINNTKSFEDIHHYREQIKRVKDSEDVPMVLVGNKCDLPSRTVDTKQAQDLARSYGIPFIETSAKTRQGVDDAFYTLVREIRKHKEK
KRAS G13C, sequence (P62937 whole entry): as the sequence (P62937 whole entry) above
Procedure, shortened: as §2

[8] = biological target: KRAS G13D (Homo sapiens, UniProt P01116+P62937, G13D); experiment: as above; format: biochemical; details: KRAS G13D; read-out: KRAS G13D FRET data IC50
KRAS G13D, sequence (P01116 1-169 isoform P01116-2 G13D limits assumed): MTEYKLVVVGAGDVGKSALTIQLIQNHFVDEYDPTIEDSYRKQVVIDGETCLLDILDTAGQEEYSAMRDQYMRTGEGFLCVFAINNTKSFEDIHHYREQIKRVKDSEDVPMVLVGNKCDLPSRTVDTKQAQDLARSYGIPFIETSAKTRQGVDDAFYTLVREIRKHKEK
KRAS G13D, sequence (P62937 whole entry): as the sequence (P62937 whole entry) above
Procedure, shortened: as §2

[9] = biological target: KRAS WT (Homo sapiens, UniProt P01116+P62937); experiment: as above; format: biochemical; details: KRAS WT; read-out: KRAS WT FRET data IC50
KRAS WT, sequence (P01116 1-169 isoform P01116-2 limits assumed): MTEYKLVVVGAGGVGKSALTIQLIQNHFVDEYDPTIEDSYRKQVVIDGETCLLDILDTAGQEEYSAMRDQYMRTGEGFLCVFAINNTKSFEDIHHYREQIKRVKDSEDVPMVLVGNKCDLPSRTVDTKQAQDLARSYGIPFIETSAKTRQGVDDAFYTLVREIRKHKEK
KRAS WT, sequence (P62937 whole entry): as the sequence (P62937 whole entry) above
Procedure, shortened: as §2

[10] = biological target: NRAS G12C (Homo sapiens, UniProt P01111+P62937, G12C); experiment: as above; format: biochemical; details: NRAS G12C; read-out: NRAS G12C FRET data IC50
NRAS G12C, sequence (P01111 whole entry G12C): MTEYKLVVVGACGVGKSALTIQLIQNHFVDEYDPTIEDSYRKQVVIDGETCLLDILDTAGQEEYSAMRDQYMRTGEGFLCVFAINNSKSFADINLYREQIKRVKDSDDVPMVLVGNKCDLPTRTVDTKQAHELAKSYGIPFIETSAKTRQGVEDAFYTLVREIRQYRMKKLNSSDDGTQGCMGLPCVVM
NRAS G12C, sequence (P62937 whole entry): as the sequence (P62937 whole entry) above

[11] = biological target: KRAS Q61H (Homo sapiens, UniProt P01116+P62937, Q61H); experiment: as above; format: biochemical; details: KRAS Q61H; read-out: KRAS Q61H FRET data IC50
KRAS Q61H, sequence (P01116 1-169 isoform P01116-2 Q61H limits assumed): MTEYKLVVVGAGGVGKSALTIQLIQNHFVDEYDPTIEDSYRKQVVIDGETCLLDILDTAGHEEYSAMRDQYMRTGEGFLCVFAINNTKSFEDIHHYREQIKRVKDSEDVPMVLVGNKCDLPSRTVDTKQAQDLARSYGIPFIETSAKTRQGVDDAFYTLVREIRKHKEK
KRAS Q61H, sequence (P62937 whole entry): as the sequence (P62937 whole entry) above
Procedure, shortened: (§3)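 IC50 reflects compound-driven Ras:Cyclophilin A ternary complex displacing BRAF RBD, read as lowered TR-FRET ratio relative to DMSO after Eu anti-His (10 nM) and APC anti-GST (50 nM) detection for 1.5 h. Prior incubation 3 h, 25° C, with 12.5 nM GMPPNP-loaded Ras, 50 nM BRAF RBD, 25 μM Cyclophilin A; top compound 30 μM.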

[12] = biological target: NRAS Q61K (Homo sapiens, UniProt P01111+P62937, Q61K); experiment: as above; format: biochemical; details: NRAS Q61K; read-out: NRAS Q61K FRET data IC50
NRAS Q61K, sequence (P01111 whole entry Q61K): as the sequence (P01111 whole entry G12C) above, with C12G, Q61K counted along it
NRAS Q61K, sequence (P62937 whole entry): as the sequence (P62937 whole entry) above
Procedure, shortened: as §3

[13] = biological target: NRAS Q61R (Homo sapiens, UniProt P01111+P62937, Q61R); experiment: as above; format: biochemical; details: NRAS Q61R; read-out: NRAS Q61R FRET data IC50
NRAS Q61R, sequence (P01111 whole entry Q61R): as the sequence (P01111 whole entry G12C) above, with C12G, Q61R counted along it
NRAS Q61R, sequence (P62937 whole entry): as the sequence (P62937 whole entry) above
Procedure, shortened: as §3

[14] = biological target: NRAS WT (Homo sapiens, UniProt P01111+P62937); experiment: as above; format: biochemical; details: NRAS WT; read-out: NRAS WT FRET data IC50
NRAS WT, sequence (P01111 whole entry): as the sequence (P01111 whole entry G12C) above, with C12G counted along it
NRAS WT, sequence (P62937 whole entry): as the sequence (P62937 whole entry) above
Procedure, shortened: as §3

[15] = 5-day treatment, read-out: Capan-1 Cell Viability assay data (K-Ras G12V, IC50)

SMILES	IC50 [1, 15] [µM]	IC50 [2] [nM]	IC50 [3] [nM]	IC50 [4] [nM]	IC50 [5] [nM]	IC50 [6] [nM]	IC50 [7] [nM]	IC50 [8] [nM]	IC50 [9] [nM]	IC50 [10] [nM]	IC50 [11] [nM]	IC50 [12] [nM]	IC50 [13] [nM]	IC50 [14] [nM]	IC50 ([1]; read-out: Capan-1 Cell Viability assay data (K-Ras G12V, IC50, uM)) [µM]
CCn1c(-c2cccnc2[C@H](C)OC)c2c3cc(ccc31)-c1csc(n1)C[C@H](NC(=O)[C@H](C(C)C)N(C)C(=O)N1CC[C@@H]1CN(C)C)C(=O)N1CCC[C@H](N1)C(=O)OCC(C)(C)C2 [Example A502]	0.1 to 1	10 to 100	100 to 1000	100 to 1000	100 to 1000	1000 to 10000	100 to 1000	100 to 1000	100 to 1000	100 to 1000	10 to 100	100 to 1000	100 to 1000	100 to 1000	–
CCn1c(-c2cccnc2[C@H](C)OC)c2c3cc(ccc31)-c1nc(cs1)C[C@H](NC(=O)[C@H](C(C)C)N(C)C(C)=O)C(=O)N1CCC[C@H](N1)C(=O)OCC(C)(C)C2 [Example A152]	0.1 to 1	100 to 1000	1000 to 10000	1000 to 10000	1000 to 10000	1000 to 10000	1000 to 10000	1000 to 10000	1000 to 10000	1000 to 10000	100 to 1000	100 to 1000	1000 to 10000	1000 to 10000	–
CCn1c(-c2cc(N3CCN(C)CC3)cnc2[C@H](C)OC)c2c3cc(ccc31)-c1csc(n1)C[C@H](NC(=O)[C@H](C(C)C)N(C)C(=O)N1CC(N(C)C)C1)C(=O)N1CCC[C@H](N1)C(=O)OCC(C)(C)C2 (atropisomer, axis not shown) [Example A477]	< 0.01	< 10	10 to 100	100 to 1000	100 to 1000	10 to 100	100 to 1000	100 to 1000	100 to 1000	10 to 100	10 to 100	10 to 100	10 to 100	10 to 100	–
CCn1c(-c2cccnc2[C@H](C)OC)c2c3cc(ccc31)-c1csc(n1)C[C@H](NC(=O)[C@H](C(C)C)N(C)C(=O)N1CC(S(=O)(=O)NC)C1)C(=O)N1CCC[C@H](N1)C(=O)OCC(C)(C)C2 (atropisomer, axis not shown) [Example A549]	0.01 to 0.1	10 to 100	10 to 100	100 to 1000	100 to 1000	100 to 1000	100 to 1000	100 to 1000	100 to 1000	10 to 100	10 to 100	10 to 100	100 to 1000	100 to 1000	–
CCn1c(-c2cc(C3CCN(C)CC3)cnc2[C@H](C)OC)c2c3cc(ccc31)-c1csc(n1)C[C@H](NC(=O)[C@H](C(C)C)N(C)C(=O)N1CC(C3COC3)C1)C(=O)N1CCC[C@H](N1)C(=O)OCC(C)(C)C2 [Example A465]	–	< 10	10 to 100	100 to 1000	10 to 100	10 to 100	10 to 100	100 to 1000	10 to 100	10 to 100	10 to 100	10 to 100	10 to 100	10 to 100	< 0.01
CCn1c(-c2cccnc2[C@H](C)OC)c2c3cc(ccc31)-c1csc(n1)C[C@H](NC(=O)[C@H](C(C)C)N(C)C(=O)N1CC(CN(C)C)(OC)C1)C(=O)N1CCC[C@H](N1)C(=O)OCC(C)(C)C2 (atropisomer, axis not shown) [Example A575]	0.1 to 1	100 to 1000	1000 to 10000	1000 to 10000	1000 to 10000	1000 to 10000	1000 to 10000	1000 to 10000	1000 to 10000	1000 to 10000	1000 to 10000	1000 to 10000	1000 to 10000	1000 to 10000	–
